Experimental data from ChEMBL document CHEMBL3272098, “Reactions of 2-acyloxyisobutyryl halides with nucleosides. 7. Synthesis and biological evaluation of some 2,2'-anhydro-1(3',5'-di-O-acyl-beta-D-arabinofuranosyl)cytosine hydrochlorides” (J Med Chem, 1976).
The source made the active and inactive calls. The rule behind the calls is not given here.

Columns and labels:
L1210 [1] = test: Antitumor activity against mouse L1210 cells allografted in BDF1 mouse assessed as survival at 1000 mg/kg, ip administered 24 hrs post-implantation after 30 days; type: functional, organism-based; set-up: dose 1000 mg/kg
L1210 [2] = test: Antitumor activity against mouse L1210 cells allografted in BDF1 mouse assessed as increase in life span at 50 mg/kg, ip administered 24 hrs post-implantation measured up to 30 days relative to control; type: functional; details: route intraperitoneal
L1210 [3] = test: Antitumor activity against mouse L1210 cells allografted in BDF1 mouse assessed as survival at 200 mg/kg, ip administered 24 hrs post-implantation after 30 days; type: functional, organism-based; set-up: dose 200 mg/kg
BGM = test: Antiviral activity against Poliovirus type 1 Mahoney infected in African green monkey BGM cells after 5 days by pulp disk diffusion assay; type: functional, cell-based; details: Human poliovirus 1 Mahoney
HeLa = test: Cytotoxicity against human HeLa cells after 48 hrs by Coulter counting analysis; type: functional; details: read-out: ED50 (the source's name)
L1210 [4] = test: Antitumor activity against mouse L1210 cells allografted in BDF1 mouse assessed as survival at 50 mg/kg, ip administered 24 hrs post-implantation after 30 days; type: functional, organism-based; set-up: dose 50 mg/kg
L1210 [5] = test: Antitumor activity against mouse L1210 cells allografted in po dosed BDF1 mouse administered 24 hrs post-implantation; type: functional, organism-based
[6] = tested on: unidentified influenza virus; test: Antiviral activity against Influenza virus Ao/WNS infected in monkey LLC-MK2 cells after 5 days by pulp disk diffusion assay; type: functional, organism-based
Measles morbillivirus = test: Antiviral activity against Measles virus infected in African green monkey BGM cells after 5 days by pulp disk diffusion assay; type: functional, organism-based
Vaccinia virus = test: Antiviral activity against Vaccinia virus IHD infected in African green monkey BGM cells after 6 days by plaque reduction assay; type: functional; details: Orthopoxvirus vaccinia, 144 h, read-out: ED50 (the source's name)
Herpesviridae sp. = test: Antiviral activity against Herpes simplex virus HF infected in African green monkey BGM cells after 6 days by plaque reduction assay; type: functional; details: 144 h, read-out: ED50 (the source's name)
L1210 [7] = test: Antitumor activity against mouse L1210 cells allografted in BDF1 mouse assessed as increase in life span at 200 mg/kg, ip administered 24 hrs post-implantation measured up to 30 days relative to control; type: functional; details: route intraperitoneal
L1210 [8] = test: Antitumor activity against mouse L1210 cells allografted in BDF1 mouse assessed as increase in life span at 1000 mg/kg, ip administered 24 hrs post-implantation measured up to 30 days relative to control; type: functional; details: route intraperitoneal
Mus musculus [9] = test: Toxicity in BDF1 mouse allografted with mouse L1210 cells assessed as survival at 1000 mg/kg, ip administered 24 hrs post-implantation after 30 days; type: organism-based; set-up: dose 1000 mg/kg, route intraperitoneal; details: in vivo, 720 h
Mus musculus [10] = test: Toxicity in BDF1 mouse allografted with mouse L1210 cells assessed as reduction in average life span at 500 mg/kg, ip administered 24 hrs post-implantation measured up to 30 days relative to control; type: organism-based; set-up: dose 500 mg/kg, route intraperitoneal; scale not given: the % may be the effect or the level left; details: in vivo
Mus musculus [11] = test: Toxicity in BDF1 mouse allografted with mouse L1210 cells assessed as survival at 500 mg/kg, ip administered 24 hrs post-implantation after 30 days; type: organism-based; set-up: dose 500 mg/kg, route intraperitoneal; details: in vivo, 720 h
Mus musculus [12] = test: Toxicity in BDF1 mouse allografted with mouse L1210 cells assessed as reduction in average life span at 1000 mg/kg, ip administered 24 hrs post-implantation measured up to 30 days relative to control; type: organism-based; set-up: dose 1000 mg/kg, route intraperitoneal; scale not given: the % may be the effect or the level left; details: in vivo
Mus musculus [13] = test: Toxicity in BDF1 mouse allografted with mouse L1210 cells assessed as survival at 200 mg/kg, ip administered 24 hrs post-implantation after 30 days; type: organism-based; set-up: dose 200 mg/kg, route intraperitoneal; details: in vivo, 720 h
Mus musculus [14] = test: Toxicity in BDF1 mouse allografted with mouse L1210 cells assessed as reduction in average life span at 200 mg/kg, ip administered 24 hrs post-implantation measured up to 30 days relative to control; type: organism-based; set-up: dose 200 mg/kg, route intraperitoneal; scale not given: the % may be the effect or the level left; details: in vivo
L1210 [15] = test: Antitumor activity against mouse L1210 cells allografted in BDF1 mouse assessed as increase in life span at 500 mg/kg, ip administered 24 hrs post-implantation measured up to 30 days relative to control; type: functional; details: route intraperitoneal
L1210 [16] = test: Antitumor activity against mouse L1210 cells allografted in BDF1 mouse assessed as survival at 500 mg/kg, ip administered 24 hrs post-implantation after 30 days; type: functional, organism-based; set-up: dose 500 mg/kg

Row | SMILES | ILS at 50 mg/kg (L1210 [2]) | Activity (L1210 [3]) | Activity (BGM) | EC50 (HeLa) | Activity (L1210 [4]) | Activity (L1210 [5]) | Activity [6] | Activity (Measles morbillivirus) | EC50 (Vaccinia virus) | EC50 (Herpesviridae sp.) | ILS at 200 mg/kg (L1210 [7]) | other results
1 | CCCCCCCCCCCCCCCCCCCC(=O)OC[C@H]1O[C@@H]2[C@@H](Oc3nc(=N)ccn32)[C@@H]1OC(=O)CCCCCCCCCCCCCCCCCCC.Cl | 8% | inactive | inactive | 2.5 µg/mL | inactive | inactive | inactive | inactive | > 30 µM | > 30 µM | 31% | Activity (L1210 [1]): inactive; ILS at 1000 mg/kg (L1210 [8]): 107%
2 | CCCCCCCCCCCCCC(=O)OC[C@H]1O[C@@H]2[C@@H](Oc3nc(=N)ccn32)[C@@H]1OC(=O)CCCCCCCCCCCCC.Cl | > 129% |  | inactive | 0.48 µg/mL |  | inactive | inactive | inactive | 1.75 µM | 6.05 µM | > 295% | Activity (Mus musculus [9]): Toxic; Activity (Mus musculus [10]): 20%; Activity (Mus musculus [11]): Toxic; Activity (Mus musculus [12]): 18%
3 | CCCCCCCCCC(=O)OC[C@H]1O[C@@H]2[C@@H](Oc3nc(=N)ccn32)[C@@H]1OC(=O)CCCCCCCCC.Cl | 14% |  | inactive | 0.2 µg/mL | inactive | inactive | inactive | inactive | 0.32 µM | 1.1 µM |  | Activity (Mus musculus [9]): Toxic; Activity (Mus musculus [13]): Toxic; Activity (Mus musculus [14]): 69%; Activity (Mus musculus [12]): 72%
4 | CCCCCCCCCCC(=O)OC[C@H]1O[C@@H]2[C@@H](Oc3nc(=N)ccn32)[C@@H]1OC(=O)CCCCCCCCCC.Cl | 88% |  | inactive | 0.32 µg/mL | inactive | inactive | inactive | inactive | 0.41 µM | 0.66 µM | > 179% | ILS at 500 mg/kg (L1210 [15]): > 20%
5 | CCCCCCCCCCCC(=O)OC[C@H]1O[C@@H]2[C@@H](Oc3nc(=N)ccn32)[C@@H]1OC(=O)CCCCCCCCCCC.Cl | > 195% | Active | inactive | 0.48 µg/mL |  | inactive | inactive | inactive | 0.7 µM | 3.45 µM | > 310% | Activity (Mus musculus [9]): Toxic; Activity (Mus musculus [10]): 23%; Activity (Mus musculus [11]): Toxic; Activity (Mus musculus [12]): 18%
6 | CC(=O)O[C@H]1[C@@H]2Oc3nc(=N)ccn3[C@@H]2O[C@@H]1COC(=O)C(C)(C)C.Cl |  | inactive | inactive | 0.2 µg/mL |  | inactive | inactive | inactive | 0.77 µM | 3.2 µM | 18% | 
7 | CCCCCCCCCCCCCCCCCC(=O)OC[C@H]1O[C@@H]2[C@@H](Oc3nc(=N)ccn32)[C@@H]1OC(=O)CCCCCCCCCCCCCCCCC.Cl | 68% | inactive | inactive | 3.8 µg/mL | inactive | inactive | inactive | inactive | > 30 µM | > 30 µM | 125% | Activity (L1210 [1]): Active; ILS at 1000 mg/kg (L1210 [8]): > 255%
8 | CCCCCCCCC(=O)OC[C@H]1O[C@@H]2[C@@H](Oc3nc(=N)ccn32)[C@@H]1OC(=O)CCCCCCCC.Cl | 14% |  | inactive | 0.06 µg/mL | inactive | inactive | inactive | inactive | 0.32 µM | 0.42 µM |  | Activity (Mus musculus [13]): Toxic; Activity (Mus musculus [14]): 88%
9 | CCCCCCCC(=O)OC[C@H]1O[C@@H]2[C@@H](Oc3nc(=N)ccn32)[C@@H]1OC(=O)CCCCCCC.Cl |  | inactive | inactive | 0.1 µg/mL |  | inactive | inactive | inactive | 0.56 µM | 1.35 µM | 28% | 
10 | CC(=O)O[C@H]1[C@@H]2Oc3nc(=N)ccn3[C@@H]2O[C@@H]1COC(=O)C12C=CC(C)(CC1)CC2.Cl |  | inactive | inactive | 0.2 µg/mL |  | inactive | inactive | inactive | 0.4 µM | 1.75 µM | 20% | 
11 | Cl.N=c1ccn2c(n1)O[C@H]1[C@H](O)[C@@H](CO)O[C@H]12 [ANCITABINE HYDROCHLORIDE] |  | inactive | inactive | 0.06 µg/mL |  | inactive | inactive | inactive | 0.41 µM | 0.7 µM | 25% | ILS at 500 mg/kg (L1210 [15]): 67%; Activity (L1210 [1]): inactive; Activity (L1210 [16]): inactive; ILS at 1000 mg/kg (L1210 [8]): 89%
12 | CC(=O)OC[C@H]1O[C@@H]2[C@@H](Oc3nc(=N)ccn32)[C@@H]1OC(C)=O.Cl |  | inactive | inactive | 0.2 µg/mL |  | inactive | inactive | inactive | 0.69 µM | 2.4 µM | 7% | 
13 | CCCC(=O)OC[C@H]1O[C@@H]2[C@@H](Oc3nc(=N)ccn32)[C@@H]1OC(=O)CCC.Cl |  | inactive | inactive | 0.11 µg/mL |  | inactive | inactive | inactive | 1.55 µM | 4.9 µM | 58% | ILS at 500 mg/kg (L1210 [15]): 85%; Activity (Mus musculus [9]): Toxic; Activity (L1210 [16]): inactive; Activity (Mus musculus [12]): 100%
14 | CC(=O)O[C@H]1[C@@H]2Oc3nc(=N)ccn3[C@@H]2O[C@@H]1COC(=O)C12CC3CC(CC(C3)C1)C2.Cl |  |  | inactive | 0.2 µg/mL |  | inactive | inactive | inactive | 0.64 µM | 2.1 µM |  | Activity (Mus musculus [13]): Toxic; Activity (Mus musculus [14]): 100%
15 | CCCCCCCCCCCCCCCCCCCCCC(=O)OC[C@H]1O[C@@H]2[C@@H](Oc3nc(=N)ccn32)[C@@H]1OC(=O)CCCCCCCCCCCCCCCCCCCCC.Cl | 15% | inactive | inactive | > 10 µg/mL | inactive | inactive | inactive | inactive | > 30 µM | > 30 µM | 55% | Activity (L1210 [1]): inactive; ILS at 1000 mg/kg (L1210 [8]): 139%
16 | CCCCCCCCCCCCCCCC(=O)OC[C@H]1O[C@@H]2[C@@H](Oc3nc(=N)ccn32)[C@@H]1OC(=O)CCCCCCCCCCCCCCC.Cl |  | inactive | inactive | 4 µg/mL |  | inactive | inactive | inactive | 28 µM | > 30 µM | 231% | 
17 | CCCCCCCC/C=C/CCCCCCCC(=O)OC[C@H]1O[C@@H]2[C@@H](Oc3nc(=N)ccn32)[C@@H]1OC(=O)CCCCCCC/C=C/CCCCCCCC.Cl | 114% |  | inactive | 1.4 µg/mL | inactive | inactive | inactive | inactive | 4.7 µM | 9.3 µM | > 258% | ILS at 500 mg/kg (L1210 [15]): > 257%; Activity (L1210 [1]): inactive; Activity (L1210 [16]): Active; ILS at 1000 mg/kg (L1210 [8]): 11%
